What all share (test): growth of human tumour cells (NCI), 48 h
In experiment [1] the test system is A549 NSCLC.
The subject of experiment [2] is CCRF-CEM leukemia.
Experiment [3] deals with DU-145 prostate.
For experiment [4], the system named is HOP-62 NSCLC.
Experiment [5] concerns HOP-92 NSCLC.
In experiment [6] the test system is MOLT-4 leukemia.
Experiment [7] relates to PC-3 prostate.
For experiment [8], the system named is RXF 393 renal.
The test system of experiment [9] is SK-OV-3 ovarian.
Experiment [10] concerns SW-620 colon.

Each structure is given as a SMILES string.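 Five concentrations, 48 hours, 96-well plates. GI50 = concentration required for 50% inhibition of growth. The concentration for full growth arrest is given as TGI.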

Regarding `C#C/C=C/CC1OC(C(Br)CC)CC(Br)C2CC1O2` (stereo not given), the TGI in [1] was above 100 µM; in experiment [2], above 100 µM; in experiment [3], above 100 µM; in [4], above 100 µM; in experiment [5] it was 58.6 µM; in experiment [6] it was above 100 µM. Moreover, the TGI in [7], in [8], in [9] and in experiment [10] was above 100 µM each time.
For `COc1ccc(-c2nc(-c3nc4ccc(C(F)(F)F)cc4[nH]3)c3ccccn23)cc1`, the GI50 in [1] was 28.5 µM; in experiment [2] it was 7.4 µM; in experiment [3], above 100 µM; in experiment [4], 38 µM; in experiment [5] it was above 100 µM; in [6] it was 2.81 µM. Further, the GI50 is 4.73 µM in [7], 30.5 µM in experiment [8], above 100 µM in experiment [9] and above 100 µM in [10]. For the same compound, the TGI in [1], in experiment [2], in experiment [3], in experiment [4], in [5] and in experiment [6] was above 100 µM in each case. Besides, the TGI in experiment [7], in [8], in experiment [9] and in [10] was above 100 µM in each case.
Regarding `Cn1c2ccccc2c2nnc(NNCc3ccccn3)nc21`, the GI50 in [1] was 0.414 µM; in experiment [2] it was 0.357 µM; in experiment [3], 0.312 µM; in [4], 0.324 µM; in [5], 0.279 µM; in experiment [6], 0.38 µM. In addition, the GI50 in experiment [7] is 0.594 µM; in [8] it was 0.407 µM; in experiment [9], 0.387 µM; in experiment [10], 0.613 µM. For the same compound, the TGI is 16.4 µM in [1]; 12.7 µM in experiment [2]; 11 µM in experiment [3]; 4.64 µM in experiment [4]; 5.91 µM in [5]; 12.6 µM in experiment [6]. In addition, the TGI came to 16.5 µM in experiment [7], 3.36 µM in [8], 7.22 µM in experiment [9] and 16.5 µM in [10].
Turning to `O=Nc1c(O)c2ccccc2c2ccccc12`, the GI50 in experiment [1] was 1.63 µM; in experiment [2], 1.25 µM; in experiment [3], 0.961 µM; in experiment [4], 0.768 µM; in [5], 2.32 µM; in experiment [6], 2.13 µM. In addition, the GI50 is 0.633 µM in experiment [7], 1.72 µM in [8], 2.48 µM in experiment [9] and 1.2 µM in [10]. Further, the TGI in [1] is 3.13 µM; in experiment [2], above 100 µM; in experiment [3], 2.23 µM; in experiment [4], 2.41 µM; in [5], 4.57 µM; in [6] it was above 100 µM. In addition, the TGI in [7] stood at 2.73 µM; in [8], 3.23 µM; in experiment [9] it was 6.27 µM; in [10] it was 3.19 µM.
On to `COc1cc(NC(C)CCCN)c2ncccc2c1Sc1ccc(Cl)cc1` (stereo not given), for which the GI50 in experiment [1] is 1.65 µM; in experiment [2], 1.77 µM; in [3], 1.85 µM; in [4] it was 1.75 µM; in experiment [5] it was 1.37 µM; in experiment [6] it was 1.84 µM. In addition, the GI50 in experiment [7] is 1.65 µM; in experiment [8], 1.7 µM; in experiment [9] it was 1.65 µM; in experiment [10] it was 1.61 µM. The TGI in experiment [1] was 3.01 µM; in experiment [2] it was 4.96 µM; in [3], 3.32 µM; in experiment [4], 3.29 µM; in experiment [5], 3.48 µM; in experiment [6], 4.16 µM. Further, the TGI in experiment [7] came out at 3.09 µM; in experiment [8] it was 3.07 µM; in [9], 3.08 µM; in experiment [10], 3.08 µM.
Consider `CCN(Cc1cccc(F)c1F)c1ccc(CO)c(Cl)c1`, for which the GI50 in experiment [1] is 1.54 µM; in experiment [2], 20.1 µM; in experiment [3] it was 18.8 µM; in experiment [4], 1.82 µM; in experiment [5], 0.19 µM; in [6] it was 19.8 µM. Moreover, the GI50 is 15.4 µM in experiment [7], 1.89 µM in experiment [8], 8.3 µM in experiment [9] and 0.554 µM in experiment [10]. The TGI in [1] came to 24.2 µM; in experiment [2], 69.1 µM; in experiment [3], 55.6 µM; in experiment [4], 24.6 µM; in experiment [5] it was 8.23 µM; in [6] it was 49.9 µM. The TGI turned out to be 37.2 µM in experiment [7], 14.9 µM in experiment [8], 27.4 µM in [9] and 18.1 µM in experiment [10].
For the compound `NCCN1C(=O)c2ccccc2C1(O)c1ccc(Cl)cc1` (stereo not given), the TGI is 67.3 µM in [1]; 57 µM in experiment [2]; above 100 µM in [3]; 89.8 µM in experiment [4]; 34.4 µM in experiment [5]; 38.8 µM in experiment [6]. In addition, the TGI was determined as 50 µM in [7], 55.8 µM in [8], 81.1 µM in experiment [9] and 36.6 µM in [10].
Turning to `Oc1ccccc1C=Nc1ccccc1N=Cc1ccccc1O.[Cu+2]`, the GI50 in experiment [1] is 5.88 µM; in experiment [2], 4.16 µM; in [3] it was 5.13 µM; in experiment [4], 2.99 µM; in experiment [5], 1.03 µM; in [6], 3.84 µM. Also, the GI50 in [7] was 3.49 µM; in experiment [8], 13.2 µM; in [9], 5.23 µM; in experiment [10], 10.6 µM. Further, the TGI was 18.2 µM in experiment [1]; above 100 µM in [2]; 18.5 µM in experiment [3]; 11.7 µM in experiment [4]; 8.9 µM in [5]; above 100 µM in experiment [6]. For the same compound, the TGI in experiment [7] was found to be 16.2 µM; in experiment [8], 26.6 µM; in experiment [9], 18.3 µM; in experiment [10], 24.4 µM.

The values are drawn from PubChem BioAssay (NCI).
